Measured values as given in PubChem BioAssay (NCI).
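48-hour exposure; five concentrations; linearly interpolated endpoints. GI50: concentration for 50% inhibition of growth. TGI: concentration producing complete growth inhibition.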

Key:
Assay in all cases: NCI tumour cell line growth inhibition, 48 h
U251 CNS = system: U251 CNS
BT-549 breast = system: BT-549 breast
EKVX NSCLC = system: EKVX NSCLC
SR leukemia = system: SR leukemia
MDA-MB-231 breast = system: MDA-MB-231 breast
OVCAR-5 ovarian = system: OVCAR-5 ovarian
KM12 colon = system: KM12 colon
SF-268 CNS = system: SF-268 CNS
NCI/ADR-RES ovarian = system: NCI/ADR-RES ovarian
CAKI-1 renal = system: CAKI-1 renal
IGROV1 ovarian = system: IGROV1 ovarian
OVCAR-3 ovarian = system: OVCAR-3 ovarian
MDA-MB-435 = system: MDA-MB-435
OVCAR-4 ovarian = system: OVCAR-4 ovarian
M14 melanoma = system: M14 melanoma
SK-MEL-28 melanoma = system: SK-MEL-28 melanoma
SW-620 colon = system: SW-620 colon
PC-3 prostate = system: PC-3 prostate
MOLT-4 leukemia = system: MOLT-4 leukemia
MCF7 breast = system: MCF7 breast
HCT-15 colon = system: HCT-15 colon
SNB-19 CNS = system: SNB-19 CNS
HS 578T breast = system: HS 578T breast
ACHN renal = system: ACHN renal
HOP-62 NSCLC = system: HOP-62 NSCLC
SN12C renal = system: SN12C renal
UACC-62 melanoma = system: UACC-62 melanoma
SF-295 CNS = system: SF-295 CNS
SK-MEL-2 melanoma = system: SK-MEL-2 melanoma

Q: For `CCOP(=O)(OCC)OC[C@]12CC[C@@H](C)[C@H](C)C1C1=CC[C@@H]3[C@@]4(C)CCCNC(C)(C)[C@@H]4CC[C@@]3(C)[C@]1(C)CC2` (some centres not stated), which GI50 (U251 CNS) is on record?
A: 1650 nM

Q: What about the TGI (U251 CNS) of the same compound?
A: 3.35 µM

Q: And the GI50 (BT-549 breast)?
A: 4.49 µM

Q: What about the TGI (BT-549 breast) of the same compound?
A: 17.6 µM

Q: What about the GI50 (EKVX NSCLC) of the same compound?
A: 1530 nM

Q: And the TGI (EKVX NSCLC)?
A: 2960 nM

Q: What about the GI50 (SR leukemia) of the same compound?
A: 1410 nM

Q: What about the TGI (SR leukemia) of the same compound?
A: 3.64 µM

Q: And the GI50 (MDA-MB-231 breast)?
A: 1700 nM

Q: What about the TGI (MDA-MB-231 breast) of the same compound?
A: 3.19 µM

Q: And the GI50 (OVCAR-5 ovarian)?
A: 1680 nM

Q: And the TGI (OVCAR-5 ovarian)?
A: 3.09 µM

Q: What about the GI50 (KM12 colon) of the same compound?
A: 1910 nM

Q: And the TGI (KM12 colon)?
A: 3.57 µM

Q: What about the GI50 (SF-268 CNS) of the same compound?
A: 2510 nM

Q: And the TGI (SF-268 CNS)?
A: 9.24 µM

Q: What about the GI50 (NCI/ADR-RES ovarian) of the same compound?
A: 1790 nM

Q: And the TGI (NCI/ADR-RES ovarian)?
A: 3.39 µM

Q: And the GI50 (CAKI-1 renal)?
A: 1440 nM

Q: What about the TGI (CAKI-1 renal) of the same compound?
A: 2790 nM

Q: And the GI50 (IGROV1 ovarian)?
A: 1570 nM

Q: What about the TGI (IGROV1 ovarian) of the same compound?
A: 3000 nM

Q: And the GI50 (OVCAR-3 ovarian)?
A: 1720 nM

Q: And the TGI (OVCAR-3 ovarian)?
A: 3.33 µM

Q: And the GI50 (MDA-MB-435)?
A: 1760 nM

Q: And the TGI (MDA-MB-435)?
A: 3.31 µM

Q: And the GI50 (OVCAR-4 ovarian)?
A: 2270 nM

Q: What about the TGI (OVCAR-4 ovarian) of the same compound?
A: 6.13 µM

Q: And the GI50 (M14 melanoma)?
A: 1740 nM

Q: And the TGI (M14 melanoma)?
A: 3.32 µM

Q: And the GI50 (SK-MEL-28 melanoma)?
A: 1690 nM

Q: What about the TGI (SK-MEL-28 melanoma) of the same compound?
A: 3.11 µM

Q: And the GI50 (SW-620 colon)?
A: 1820 nM

Q: What about the TGI (SW-620 colon) of the same compound?
A: 3.45 µM

Q: And the GI50 (PC-3 prostate)?
A: 1570 nM

Q: And the TGI (PC-3 prostate)?
A: 3.15 µM

Q: What about the GI50 (MOLT-4 leukemia) of the same compound?
A: 1520 nM

Q: And the TGI (MOLT-4 leukemia)?
A: 3.51 µM

Q: What about the GI50 (MCF7 breast) of the same compound?
A: 1590 nM

Q: What about the TGI (MCF7 breast) of the same compound?
A: 3.17 µM

Q: What about the GI50 (HCT-15 colon) of the same compound?
A: 1680 nM

Q: And the TGI (HCT-15 colon)?
A: 3.17 µM

Q: And the GI50 (SNB-19 CNS)?
A: 1690 nM

Q: What about the TGI (SNB-19 CNS) of the same compound?
A: 3.24 µM

Q: And the GI50 (HS 578T breast)?
A: 2680 nM

Q: What about the TGI (HS 578T breast) of the same compound?
A: 8.09 µM

Q: And the GI50 (ACHN renal)?
A: 1720 nM

Q: And the TGI (ACHN renal)?
A: 3.11 µM

Q: And the GI50 (HOP-62 NSCLC)?
A: 1950 nM

Q: What about the TGI (HOP-62 NSCLC) of the same compound?
A: 3.93 µM

Q: And the GI50 (SN12C renal)?
A: 1530 nM

Q: And the TGI (SN12C renal)?
A: 2940 nM

Q: What about the GI50 (UACC-62 melanoma) of the same compound?
A: 1550 nM

Q: What about the TGI (UACC-62 melanoma) of the same compound?
A: 3.11 µM

Q: What about the GI50 (SF-295 CNS) of the same compound?
A: 1780 nM

Q: And the TGI (SF-295 CNS)?
A: 3.34 µM

Q: And the GI50 (SK-MEL-2 melanoma)?
A: 4.8 µM
